Series [1] has as its system intracellular ROS in normal newborn human dermal fibroblasts. In words: Dichlorofluorescein diacetate (DCF) assay of intracellular ROS, FACScan. In kind it is cell-based. The following applies: for DCF fluorescence (intracellular ROS) compared to diluent: 100 μM pTT / pCC, 40 μM TO / TOC1 / TOC2. Here is the method: Normal newborn human dermal fibroblasts were cultured from foreskin specimens into DMEM supplemented with 10% CS as described above. Due to the large number of cells needed for time course experiments, and to minimize donor variability, in dichlorofluorescein diacetate FACS experiments cells from three different donors were combined.
Purified lyophilized oligonucleotides were obtained and prepared for cell treatment as described above. All treatments involved a single stimulation with T-oligo, after which cells were harvested at various times without medium changes or addition of more T-oligo. Treatment doses were 100 μM pTT and 40 μM TO except in dose-response experiments; these concentrations were determined in previous experiments to be optimal for measuring DNA damage responses using these T-oligos.^142,150,228
Complementary and scrambled oligonucleotides were chosen for each T-oligo. pAA and pCC were used as controls for pTT, and the complementary 11-base pCTAACCCTAAC (TOC1, SEQ ID NO: 22) and a scrambled sequence pGATCGATCGAT (TOC2, SEQ ID NO: 23) were used as controls for the T-oligo TO.
(§1) H2DCFDA stock solution (1 mg/ml) was thawed and diluted in Hanks' Balanced Salt Solution, 1× liquid without phenol red (GIBCO Invitrogen, Carlsbad, Calif.), to a working concentration of 100 μM immediately before use. H2DCFDA is converted by intracellular esterases to dichlorofiuorescein (DCF). When oxidized by intracellular ROS, it will fluoresce at 530 nm when excited by 480 nm light. […] All work involving DCF was conducted in minimal room light. Peaks on FACScan plots that shift to the right indicate greater fluorescence and increased ROS levels. For NADPH oxidase inhibitor studies using DPI,^237,239 the DPI stock solution was added directly to DCF treatment solution to achieve a final DPI treatment concentration of 50 μM.
Hydrogen peroxide positive controls were used to rule out saturation of the DCF probe in the T-oligo dose response experiments. Fibroblasts were exposed to 1 mM, 5 mM and 10 mM H2O2 solutions in PBS for 15 minutes following DCF incubation for 30 minutes, harvested and analyzed as described above.
The horseradish peroxidase assay data was analyzed by one-way ANOVA. DCF assay FACScan results were analyzed using Cellquest software (Becton-Dickinson, Calif.). All peak positions on x-axis of the fluorescence histogram plot were determined visually (using the software) and recorded as a number. Peak position values were then compared using one-way ANOVA.

In another series the test system is NAD(P)H oxidase. In words: DCF assay with NADPH oxidase inhibitor DPI. It is filed as cell-based, human. The following applies: 50 μM DPI in DCF solution; pTT or TO treated fibroblasts. Here is the method:
as §1
Because p53-dependent ROS production in fibroblasts has been attributed to NAD(P)H oxidase activity,^169 a specific NADPH oxidase inhibitor, diphenyliodonium chloride (DPI),^239 was added to the DCF assay medium to determine the role of NADPH oxidases in T-oligo mediated ROS induction.

“Also recorded” adds a separate entry of the source. {P} = phosphate

Regarding `OO` [H2O2, Hydrogen peroxide, reference compound], in series [1] (1 mM H2O2 for 15 minutes), the “DCF peak shift of positive control” value is given as “greater shift than any of the T-oligo treatments”.

In the case of “pGATCGATCGAT (5' {P}, sugars by position and backbone not given here) [TOC2, reference compound]”, the “DCF fluorescence (intracellular ROS) compared to diluent” value in series [1] is given as “not significantly different from each other; also recorded: overlapping with diluent curve”.

Consider `[Cl-].c1ccc([I+]c2ccccc2)cc1` [DPI, diphenyliodonium chloride], for which the “effect of DPI on T-oligo-stimulated ROS (DCF fluorescence)” value in the series on NAD(P)H oxidase is listed as “consistently abrogated the increase in ROS stimulated by T-oligos”.

“pCTAACCCTAAC (5' {P}, sugars by position and backbone not given here) [TOC1, complementary 11-base control oligonucleotide for TO, reference compound]”: in series [1], the “DCF fluorescence (intracellular ROS) compared to diluent” value is listed as “not significantly different from each other”.

Values taken from US20100286247A1, “Methods of Protection from Oxidative Stress” (Trustees of Boston University, priority 2005, published 2010).
